Assay results as given in patent publication US10130652B2, “Anti-inflammatory compositions” (INDENA S.P.A., priority 2010, dated 2018).
Marks after values point to notes of the source that are not given here.

Test system: myeloperoxidase (MPO)
Assay: Myeloperoxidase (MPO) expression/activity inhibition in LPS-stimulated skin PMNs (ELISA on cell supernatants)
Format: cell-based
Conditions: human skin PMNs stimulated with LPS, positive reference at 0.1%, 6 hours of incubation
Protocol: Tamarind Seed Polysaccharide (either alone and in combination with standardized botanical extracts) was tested for its ability to reduce inflammation cellular response through the measurement of the inhibition of myeloperoxidase (MPO) activity in polymorphonuclear neutrophils (PMNs). Inflammation, in particular during the acute phase, causes the migration of PMNs towards the inflammation site by chemotaxis. It is also known that the degree of MPO activity is directly proportional to the number of PMNs present in the tissue and to the inflammatory response. Thus, a reduction of the number of PMNs corresponds to a reduction in the activity of myeloperoxidase and it can he then concluded that the cellular response to inflammation is reduced accordingly.
Human skin PMNs were cultivated in bacteriological Petri dishes with 100 mm diameter. Cell culture medium was RPMI-1640 supplemented with Penicillin (100 U/ml), Streptomycin (100 mcg/ml), L-glutamin (2 mM) and 10% heat-inactivated and filtered FCS (Foetal Calf Serum). PMNs were then stimulated with the addition of LPS (lipopolysaccharides) to the cultivation media. […]
After 6 hours of incubation, the overall inhibition of myeloperoxidase (MPO) activity was quantified in the PMNs cell supernatants using an enzyme immunoassay kit (ELISA).

C[C@@H]1C[C@H]2[C@@H]3CCC4=CC(=O)C=C[C@]4(C)[C@@]3(F)[C@@H](O)C[C@]2(C)[C@@]1(O)C(=O)CO [Dexamethasone]
MPO Inhibition of Expression (Δ % vs. basal): −30%*
